# Source: patent US9914707B2, “Naphthylamide compound, preparation method and use thereof” (SHANGHAI INSTITUTE OF MATERIA MEDICA, CHINESE ACADEMY OF …, priority 2014, dated 2018)
# Test system: VEGF-induced human umbilical vein endothelial cells (HUVEC) proliferation
# Test: VEGF-induced human umbilical vein endothelial cells (HUVEC) proliferation (SRB)
# Assay type: cell-based
# Conditions: for cell activity compared with positive control compound ABT869: VEGF-induced HUVEC proliferation
# Experimental: 5000-8000 primary HUVEC cells before 5-15 doublings were seeded to each well of 96-well plate and each well contained 90 μl. The cells were cultured overnight and then starved with 90 μl/well serum-free basal culture medium for 24 h. Then 10 μl different concentration of compound was added to each well. Five concentrations were set and each concentration had 3 wells. After 2 h, 100 ng/mL of VEGF growth-stimulating factor was added. After 48 h, the medium was discarded, the cells were fixed with pre-cooled 10% TCA at 4° C. for 1 h, then washed with distilled water five times and dried in air. Then 100 μl of 4 mg/ml of sulforodamine B (SRB) solution prepared from 1% acetic acid was added to each well to dye 15 minutes at room temperature. The staining solution was discarded and each well was washed with 1% acetic acid five times and then dried in air. Finally, each well was added with 150 μl Tris-HCl solution (10 mM Tris, pH 10.0) and absorbance OD values at 560 nm were measured by microplate reader. Inhibition rate of the compound on HUVEC cell proliferation was measured to reflect VEGF-mediated proliferation inhibition effect of compound.
# Inhibition rate of the compound was obtained by the following formula: […]
# IC50 values were calculated by inhibition curves with four parameters fitting.
SMILES,cell activity compared with positive control compound ABT869,"IC50 (Homo sapiens, primary HUVEC, 100 ng/mL VEGF, 48 h, SRB, read-out: Half inhibitory concentration for VEGF-induced HUVEC proliferation, IC50)"
"Nc1n[nH]c2cccc(-c3ccc4c(C(=O)Nc5cc(F)cc(F)c5)cccc4c3)c12 [Compound I-14, 6-(3-amino-1H-indazol-4-yl)-N-(3,5-difluorophenyl)-1-naphthalenecarboxamide]",stronger than that of positive control compound ABT869,–
"Cc1ccc(F)c(NC(=O)Nc2ccc(-c3cccc4[nH]nc(N)c34)cc2)c1 [ABT869, reference compound]",–,2.32 nM
"CCc1cccc(NC(=O)c2cccc3cc(-c4cccc5[nH]nc(N)c45)ccc23)c1 [Compound I-9, 6-(3-amino-1H-indazol-4-yl)-N-(3-ethylphenyl)-1-naphthalenecarboxamide]",stronger than that of positive control compound ABT869,–
"Cc1ccc(NC(=O)c2cccc3cc(-c4cccc5[nH]nc(N)c45)ccc23)cc1 [Compound I-8, 6-(3-amino-1H-indazol-4-yl)-N-(p-methylphenyl)-1-naphthalenecarboxamide]",stronger than that of positive control compound ABT869,–
"Cc1cc(NC(=O)c2cccc3cc(-c4cccc5[nH]nc(N)c45)ccc23)ccc1F [Compound I-21, 6-(3-amino-1H-indazol-4-yl)-N-(4-fluoro-3-methylphenyl)-1-naphthalenecarboxamide]",stronger than that of positive control compound ABT869,–
